pEC50, pIC50: −log10 of the molar value. Values joined by “and” are separate entries in the source; they are usually repeats but may differ in a detail not shown here. Equal entries are not always repeated. Where two headings read alike, the source gives them in different places.
Assays:
Male Sprague Dawley rats = assay: Inhibition of Icilin-Induced "Wet-Dog" Shakes in Rats; format: in vivo; settings: rat, dose 10, p.o.
Description: Similar shaking or jumping behavior was also evident in mice, rabbits, cats, dogs and monkeys. In humans, icilin produced a sensation of coolness on contact with mucous membranes, cold prickling when 0.1 mg was dropped on the tongue and coldness in the mouth, pharynx and chest lasting 30-60 minutes when 5-10 mg was ingested orally (Wei E T, Seid D A, J Pharm Pharmacol. 1983, 35, 110). The inhibition or reversal of icilin-induced shaking behaviors in rodents provides evidence for the utility of TRPM8 antagonists of the formula (I) in treating or preventing a disease, syndrome, disorder, or condition in a subject in which the disease, syndrome, disorder or condition is affected by the modulation of TRPM8 receptors.
Male Sprague Dawley rats (220-450 g, Charles River Labs, n=6-9/treatment) may be used to evaluate the ability of selected compounds of the formula (I) to block icilin-induced “wet-dog” shakes (WDS). Compounds of the formula (I) may be administered in an appropriate vehicle, such as hydroxypropyl-β-cyclodextrin (HPIβCD), methocellulose, 10% Solutol, or H2O, or the like, by the appropriate route, i.p. or p.o., 30-120 minutes before icilin. Icilin may be administered in PEG-400 or 10% solutol/H2O, at 1.0 or 3.0 mg/kg, i.p. and spontaneous “wet-dog” shakes may be counted 10-20 minutes post-icilin.

canine TRPM8 = canine TRPM8 (Canis lupus familiaris, UniProt Q1A7N1); assay: In Vitro Canine TRPM8 Functional Assay (intracellular Ca2+ fluorescence, icilin challenge); format: cell-based; settings: for pIC50: icilin at ~80% maximal response
Chain of canine TRPM8 (Q1A7N1 1-1104): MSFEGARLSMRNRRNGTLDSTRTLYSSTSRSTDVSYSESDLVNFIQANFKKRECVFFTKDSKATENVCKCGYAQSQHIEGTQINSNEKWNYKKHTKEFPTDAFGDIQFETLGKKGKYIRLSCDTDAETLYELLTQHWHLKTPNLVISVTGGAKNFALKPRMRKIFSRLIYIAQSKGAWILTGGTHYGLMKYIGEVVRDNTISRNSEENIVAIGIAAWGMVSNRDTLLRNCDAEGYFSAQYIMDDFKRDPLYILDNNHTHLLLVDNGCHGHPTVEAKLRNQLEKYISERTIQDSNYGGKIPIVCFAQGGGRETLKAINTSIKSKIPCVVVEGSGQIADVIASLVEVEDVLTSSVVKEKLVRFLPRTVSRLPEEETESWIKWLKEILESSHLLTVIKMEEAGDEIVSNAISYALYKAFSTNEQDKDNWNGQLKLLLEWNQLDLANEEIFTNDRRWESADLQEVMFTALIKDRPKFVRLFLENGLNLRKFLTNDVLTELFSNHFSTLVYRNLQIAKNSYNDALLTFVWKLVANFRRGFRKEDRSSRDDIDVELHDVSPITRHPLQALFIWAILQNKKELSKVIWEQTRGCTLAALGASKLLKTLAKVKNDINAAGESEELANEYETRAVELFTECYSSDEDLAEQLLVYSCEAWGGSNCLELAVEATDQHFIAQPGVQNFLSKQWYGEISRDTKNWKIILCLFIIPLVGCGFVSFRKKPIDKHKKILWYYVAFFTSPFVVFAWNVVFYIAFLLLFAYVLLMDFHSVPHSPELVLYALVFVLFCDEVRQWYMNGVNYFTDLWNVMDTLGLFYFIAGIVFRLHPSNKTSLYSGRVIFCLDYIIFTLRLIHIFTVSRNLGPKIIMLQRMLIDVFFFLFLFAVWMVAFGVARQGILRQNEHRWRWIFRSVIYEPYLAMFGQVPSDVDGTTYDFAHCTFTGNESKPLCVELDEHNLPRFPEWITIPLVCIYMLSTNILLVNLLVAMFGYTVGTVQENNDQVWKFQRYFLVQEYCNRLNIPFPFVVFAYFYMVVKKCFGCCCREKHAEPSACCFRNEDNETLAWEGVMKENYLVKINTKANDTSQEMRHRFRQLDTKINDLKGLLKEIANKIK
Description: The functional activity of compounds of the formula (I) was determined by measuring changes in intracellular calcium concentration using a Ca^2+-sensitive fluorescent dye. The changes in fluorescent signal were monitored by a fluorescence plate reader, either a FLIPR™ (Molecular Devices) or FDSS (Hamamatsu).
At 24 hrs prior to assay, HEK293 cells stably expressing canine TRPM8 were seeded in culture medium in black wall, clear-base poly-D-lysine coated 384-well plates (BD Biosciences, NJ, USA) and grown overnight in 5% CO2 at 37° C. On assay day, growth media was removed and cells were loaded with Calcium 3 Dye (Molecular Devices) for 35 min at 37° C., under 5% CO2 and then for 25 min at room temperature and atmosphere. Subsequently, cells were tested for agonist-induced increases in intracellular Ca^2+ levels using FLIPR™ or FDSS. Cells were challenged with a compound of the Formula (I) (at varying concentrations) and intracellular Ca^2+ was measured for 5 min prior to the addition of icilin to all wells to achieve a final concentration that produces approximately an 80% maximal response. EC50 or IC50 values for compounds of the present invention were determined from eight-point dose-response studies. Curves were generated using the average of quadruplicate wells for each data point.

TRPM8 = TRPM8 (Mus musculus (Mouse), UniProt Q8R4D5); settings: TRPM8 transfected cells (Behrendt H J et al. 2004); cited from earlier work
Chain of TRPM8 (Q8R4D5 whole entry): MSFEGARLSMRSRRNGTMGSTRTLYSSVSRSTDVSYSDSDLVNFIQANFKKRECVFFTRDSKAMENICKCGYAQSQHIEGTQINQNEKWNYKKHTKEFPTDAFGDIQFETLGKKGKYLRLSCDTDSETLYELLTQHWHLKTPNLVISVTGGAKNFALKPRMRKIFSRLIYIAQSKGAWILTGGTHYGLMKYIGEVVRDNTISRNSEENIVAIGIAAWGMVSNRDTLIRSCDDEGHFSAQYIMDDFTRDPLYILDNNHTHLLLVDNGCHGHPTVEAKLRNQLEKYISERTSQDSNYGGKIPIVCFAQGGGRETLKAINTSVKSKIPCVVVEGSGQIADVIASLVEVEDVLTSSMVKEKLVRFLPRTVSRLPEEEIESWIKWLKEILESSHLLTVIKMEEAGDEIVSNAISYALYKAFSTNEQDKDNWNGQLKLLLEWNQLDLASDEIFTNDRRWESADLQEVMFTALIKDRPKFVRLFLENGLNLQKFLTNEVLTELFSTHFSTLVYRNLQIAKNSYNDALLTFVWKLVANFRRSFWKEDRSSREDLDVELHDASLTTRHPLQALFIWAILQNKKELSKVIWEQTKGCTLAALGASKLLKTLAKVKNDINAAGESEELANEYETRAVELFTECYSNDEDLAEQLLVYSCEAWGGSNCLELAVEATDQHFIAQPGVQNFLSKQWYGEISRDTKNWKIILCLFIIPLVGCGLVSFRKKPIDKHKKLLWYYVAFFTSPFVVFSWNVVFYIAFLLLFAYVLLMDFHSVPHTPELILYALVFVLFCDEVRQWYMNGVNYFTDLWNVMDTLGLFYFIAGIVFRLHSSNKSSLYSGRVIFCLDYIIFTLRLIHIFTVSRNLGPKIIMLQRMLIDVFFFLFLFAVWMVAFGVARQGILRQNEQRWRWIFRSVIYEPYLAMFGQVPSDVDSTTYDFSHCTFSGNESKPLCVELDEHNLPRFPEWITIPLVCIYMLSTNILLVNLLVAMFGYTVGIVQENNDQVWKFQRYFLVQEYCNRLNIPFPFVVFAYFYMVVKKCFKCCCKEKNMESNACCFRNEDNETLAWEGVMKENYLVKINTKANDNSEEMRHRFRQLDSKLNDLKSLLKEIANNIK

[1] = vehicle 20% HPβCD, form CO2−Na+
[2] = HEK293 cells stably expressing canine TRPM8
[3] = HEK293, @ 0.2 μM, HEK293 cells stably expressing canine TRPM8, read-out: % Inh (%) @ 0.2 μM
[4] = HEK293, read-out: % Inh (%) @ 0.2 μM

SMILES | pIC50 (canine TRPM8; [2]) | inhibition at 0.2 µM (canine TRPM8; [3]) [%] | also measured
Cc1c(N(Cc2ccc(OC(F)(F)F)cc2)S(=O)(=O)c2ccc(C(=O)[O-])cc2)nc2ccccn12.[Na+] [Compound 107] | 8.25 |  | % Inhibition (Male Sprague Dawley rats; [1]): −20.6%; % Inh (%) @ 0.2 μM (canine TRPM8; [2]): 101%
O=C1NC(c2cccc([N+](=O)[O-])c2)=CCN1c1ccccc1O [icilin] |  |  | pEC50 (TRPM8): 6.70
Cc1c(N(Cc2ccc(C(F)(F)F)c(F)c2)S(=O)(=O)c2ccccc2)nc2ccc(Cl)cn12 [Compound 38] |  | 100 | % Inhibition (Male Sprague Dawley rats; vehicle 20% HPβCD, form Hydrochloride): 6.5%
CC(C)c1c(N(Cc2ccc(OC(F)(F)F)cc2)S(=O)(=O)c2ccc(C(=O)[O-])cc2)nc2ccccn12.[Na+] [Compound 109] | 8.64 |  | % Inhibition (Male Sprague Dawley rats; [1]): −7.5%; % Inh (%) @ 0.2 μM (canine TRPM8; [2]): 101%
Cc1c(N(Cc2ccc(F)c(C(F)(F)F)c2)S(=O)(=O)c2ccc(C(=O)O)cc2)nc2ccc(F)cn12 [Compound 121, Sodium 4-(N-(6-fluoro-3-methylimidazo[1,2-a]pyridin-2-yl)-N-(4-fluoro-3-(trifluoromethyl)benzyl)sulfamoyl)benzoate] | 7.48 |  | inhibition at 0.2 µM (canine TRPM8; [4]): 101%
O=S(=O)(c1ccc(N2CCOCC2)nc1)N(Cc1ccc(OC(F)(F)F)cc1)c1nc2ccccn2c1Br [Compound 84] | 7.94 | 100 | 
O=S(=O)(c1ccccc1)N(Cc1ccc(OC(F)(F)F)cc1)c1cn2ccccc2n1 [Compound 12] | 7.31 |  | 
O=S(=O)(c1ccccc1)N(Cc1ccc(F)c(C(F)(F)F)c1)c1nc2ccc(Cl)cn2c1Cl [Compound 8] | 7.74 and 7.63 and 7.54 | 97 | % Inhibition (Male Sprague Dawley rats; vehicle 10% Solutol, form Hydrochloride): 15.5%; % Inh (%) @ 0.2 μM (canine TRPM8; [2]): 96%
CCc1c(N(Cc2ccc(C(F)(F)F)cc2)S(=O)(=O)c2ccccc2)nc2c(C(F)(F)F)cccn12 [Compound 58] | 7.15 | 87 | 
Cc1cccn2c(C)c(N(Cc3ccc(F)c(C(F)(F)F)c3)S(C)(=O)=O)nc12 [Compound 35] | 7.35 | 74 | 
COC(=O)c1ccc(S(=O)(=O)N(Cc2ccc(F)c(F)c2)c2nc3ccc(Cl)cn3c2C)cc1 [Compound 111] | 7.09 | 73 | 
COC(=O)c1ccc(S(=O)(=O)N(Cc2ccc(F)c(C(F)(F)F)c2)c2nc3ccc(F)cn3c2C)cc1 [Compound 119, Methyl 4-(N-(6-fluoro-3-methylimidazo[1,2-a]pyridin-2-yl)-N-(4-fluoro-3-(trifluoromethyl)benzyl)sulfamoyl)benzoate] | 7.62 | 100 | 
CCc1c(N(CCC(F)(F)F)S(=O)(=O)c2ccccc2)nc2c(C(F)(F)F)cccn12 [Compound 66] |  | 83 | 
O=S(=O)(c1ccccc1)N(Cc1ccc(OC(F)(F)F)cc1)c1nc2ccccn2c1C1CC1 [Compound 71] | 7.67 | 101 | 
Cc1c(N(Cc2ccc(C(F)(F)F)c(F)c2)S(=O)(=O)c2ccccc2)nc2ccc(C(F)(F)F)cn12 [Compound 100, N-(3-Fluoro-4-trifluoromethylbenzyl)-N-(3-methyl-6-trifluoromethylimidazo[1,2-a]pyridin-2-yl)benzenesulfonamide] |  | 31 | 
Cc1c(N(Cc2ccc(F)c(F)c2)S(=O)(=O)c2ccc(C(=O)O)cc2)nc2ccc(Cl)cn12 [Compound 114] |  |  | inhibition at 0.2 µM (canine TRPM8; [4]): 38%
O=S(=O)(c1ccccc1)N(Cc1ccc(C(F)(F)F)c(F)c1)c1nc2ccccn2c1Br [Compound 25] | 8.46 |  | 
Cc1c(N(Cc2ccc(F)c(C(F)(F)F)c2)S(C)(=O)=O)nc2ccc(F)cn12 [Compound 23] |  | 58 | 
